Assay results reported in ChEMBL document CHEMBL1201862, “PubChem BioAssay data set” (2004).
Activity calls are given as the source filed them.

Tests used:
[1] = biological target: T1, RNA-binding protein pos-1 (Caenorhabditis elegans, UniProt G5EF15); assay: disruptors of C. elegans POS-1 RNA interaction – biochemical, fluorescence polarization, dose response (AID 1964);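 also: purified POS-1 fused to maltose binding protein made in E. coli; potency of compounds blocking POS-1 binding to fluorescent RNA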
T1 sequence (G5EF15 whole entry): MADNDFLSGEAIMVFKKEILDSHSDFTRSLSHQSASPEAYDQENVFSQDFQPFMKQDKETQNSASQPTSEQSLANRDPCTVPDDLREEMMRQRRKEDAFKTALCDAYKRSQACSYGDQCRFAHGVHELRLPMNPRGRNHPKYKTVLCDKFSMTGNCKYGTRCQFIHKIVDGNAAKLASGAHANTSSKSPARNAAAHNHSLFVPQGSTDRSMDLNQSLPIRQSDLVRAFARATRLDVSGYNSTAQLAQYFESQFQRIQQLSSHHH

[2] = test system: Streptococcus sp. 'group A'; assay: Streptococcus pyogenes SK(-)GAS viability under kanamycin – luminescence, BacTiterGlo, confirmation, counter-screen for streptokinase expression inhibitor project, dose response (AID 1900); type: functional, organism-based
Streptococcus = assay: GAS UMAA2166 growth inhibition – luminescence, BacTiterGlo, counter-screen for streptokinase expression inhibitor project, dose response (AID 1915); type: functional, organism-based;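 also: potency for reduction of bacterial viability or growth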
[3] = biological target: T2, Zinc finger protein mex-5 (Caenorhabditis elegans, UniProt Q9XUB2); assay: potency of MEX-5 RNA-binding blockers – biochemical, C. elegans, fluorescence polarization, dose response (AID 1960)
T2 sequence (Q9XUB2 whole entry): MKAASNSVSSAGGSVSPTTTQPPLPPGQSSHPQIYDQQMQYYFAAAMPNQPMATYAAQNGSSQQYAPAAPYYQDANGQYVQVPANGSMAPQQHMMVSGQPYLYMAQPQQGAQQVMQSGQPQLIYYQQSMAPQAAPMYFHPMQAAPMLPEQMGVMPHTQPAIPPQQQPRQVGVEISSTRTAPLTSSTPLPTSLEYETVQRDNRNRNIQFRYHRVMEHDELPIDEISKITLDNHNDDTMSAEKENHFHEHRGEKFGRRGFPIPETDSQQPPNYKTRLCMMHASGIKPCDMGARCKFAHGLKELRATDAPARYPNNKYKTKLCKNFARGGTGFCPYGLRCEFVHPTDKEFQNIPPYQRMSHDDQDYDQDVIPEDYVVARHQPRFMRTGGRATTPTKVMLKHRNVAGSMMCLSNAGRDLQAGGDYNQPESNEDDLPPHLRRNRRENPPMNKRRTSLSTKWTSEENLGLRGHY

[4] = biological target: FAD-linked sulfhydryl oxidase ALR (Homo sapiens, UniProt P55789); assay: ALR-catalysed DTT oxidation blockers – biochemical, H2O2 detection, luminescence, cherry-pick, dose response (AID 493248)
[5] = THP-1 cell cytotoxicity, dose response, cytotoxicity control for non-replicating M. tuberculosis project (AID 489025); type: functional
Cytochrome P450 3A4 = Cytochrome P450 3A4 (Homo sapiens, UniProt P08684); details: Potency;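 also: confirmatory qHTS run detecting inhibitors and substrates of CYP3A4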
Streptokinase A = biological target: T3, Streptokinase A (Streptococcus pyogenes serotype M1, UniProt P10520); assay: viability-normalized secreted streptokinase activity reduction – plasminogen activation absorbance, OD405, dose response (AID 1914); type: functional, Streptococcus pyogenes M1 GAS;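 also: secreted streptokinase activity via plasminogen activation per viability signal from cell pellet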
T3 sequence (P10520 whole entry): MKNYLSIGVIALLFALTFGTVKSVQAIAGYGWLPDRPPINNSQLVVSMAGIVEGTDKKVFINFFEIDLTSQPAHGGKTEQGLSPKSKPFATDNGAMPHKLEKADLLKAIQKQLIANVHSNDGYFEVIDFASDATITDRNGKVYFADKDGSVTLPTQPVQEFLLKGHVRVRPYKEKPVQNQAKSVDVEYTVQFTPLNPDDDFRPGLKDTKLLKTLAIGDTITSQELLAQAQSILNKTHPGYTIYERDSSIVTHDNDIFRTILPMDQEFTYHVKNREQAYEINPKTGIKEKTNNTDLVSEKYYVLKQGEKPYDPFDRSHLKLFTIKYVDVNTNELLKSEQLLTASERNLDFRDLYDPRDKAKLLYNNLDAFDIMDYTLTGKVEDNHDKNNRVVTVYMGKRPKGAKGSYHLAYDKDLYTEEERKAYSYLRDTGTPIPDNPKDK

[6] = biological target: T4, Ubiquitin-conjugating enzyme E2 N (Homo sapiens, UniProt P61088); type: functional;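 also: Dose-response confirmation in a TR-FRET assay detecting UBC13-driven polyubiquitin chain formation, inhibition measured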
T4 sequence (P61088 whole entry): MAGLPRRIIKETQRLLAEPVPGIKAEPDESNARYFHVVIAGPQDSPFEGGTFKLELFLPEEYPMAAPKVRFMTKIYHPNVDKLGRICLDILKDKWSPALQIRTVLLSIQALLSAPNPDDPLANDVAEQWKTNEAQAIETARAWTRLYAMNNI

[7] = biological target: T5, Corticotropin-releasing factor receptor 2/Corticotropin-releasing factor-binding protein (Homo sapiens, UniProt P24387+Q13324); assay: activators of CRF receptor 2 with binding protein – uHTS hits, confirmation (AID 602473); type: functional; details: read-out: EC50_Mean
T5 sequence (Q13324 whole entry): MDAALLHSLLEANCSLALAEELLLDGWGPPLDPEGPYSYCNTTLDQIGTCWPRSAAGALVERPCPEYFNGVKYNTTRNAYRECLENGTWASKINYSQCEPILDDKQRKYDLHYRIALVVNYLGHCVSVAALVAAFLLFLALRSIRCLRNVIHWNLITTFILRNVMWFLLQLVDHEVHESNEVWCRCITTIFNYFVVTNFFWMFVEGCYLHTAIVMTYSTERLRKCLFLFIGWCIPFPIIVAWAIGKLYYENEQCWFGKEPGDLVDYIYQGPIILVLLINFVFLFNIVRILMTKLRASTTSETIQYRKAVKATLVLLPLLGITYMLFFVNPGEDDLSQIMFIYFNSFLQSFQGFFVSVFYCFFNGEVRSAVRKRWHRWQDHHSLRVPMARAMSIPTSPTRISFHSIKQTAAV
T5 sequence (P24387 whole entry): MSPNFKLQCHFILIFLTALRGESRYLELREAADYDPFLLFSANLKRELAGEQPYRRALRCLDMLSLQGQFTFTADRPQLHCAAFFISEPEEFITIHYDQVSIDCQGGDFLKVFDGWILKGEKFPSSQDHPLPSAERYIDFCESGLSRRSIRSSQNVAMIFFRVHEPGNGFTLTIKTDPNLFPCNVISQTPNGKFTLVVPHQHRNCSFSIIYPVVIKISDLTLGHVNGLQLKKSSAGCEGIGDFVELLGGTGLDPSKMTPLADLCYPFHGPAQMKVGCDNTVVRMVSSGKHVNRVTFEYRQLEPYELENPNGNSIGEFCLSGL

[8] = biological target: T6, Calpain-2 catalytic subunit (Sus scrofa, UniProt P43367); assay: m-calpain protease blockers, concentration series – biochemical, fluorogenic peptide substrate, dose response (AID 1420); type: functional
T6 sequence (P43367 whole entry): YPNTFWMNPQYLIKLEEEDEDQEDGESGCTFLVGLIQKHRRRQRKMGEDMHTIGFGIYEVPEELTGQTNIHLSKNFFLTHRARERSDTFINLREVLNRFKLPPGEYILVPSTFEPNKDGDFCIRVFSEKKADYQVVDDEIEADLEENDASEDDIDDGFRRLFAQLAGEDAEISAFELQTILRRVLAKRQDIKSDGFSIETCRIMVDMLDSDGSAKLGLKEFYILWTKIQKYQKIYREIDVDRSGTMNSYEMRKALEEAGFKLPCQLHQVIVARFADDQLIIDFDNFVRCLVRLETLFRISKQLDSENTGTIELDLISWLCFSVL

[9] = biological target: T7, Heat shock factor protein 1 (Mus musculus, UniProt P38532); assay: decrease of HSF1-responsive luciferase luminescence – cell-based, NIH3T3, dose retest, confirmation (AID 2382); type: functional;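 also: NIH3T3 fibroblasts with HSF1-driven luciferase reporter stressed by proteasome inhibitor MG132; luminescence from HSF1-driven luciferase expression after 8 hours of MG132 stress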
T7 sequence (P38532 whole entry): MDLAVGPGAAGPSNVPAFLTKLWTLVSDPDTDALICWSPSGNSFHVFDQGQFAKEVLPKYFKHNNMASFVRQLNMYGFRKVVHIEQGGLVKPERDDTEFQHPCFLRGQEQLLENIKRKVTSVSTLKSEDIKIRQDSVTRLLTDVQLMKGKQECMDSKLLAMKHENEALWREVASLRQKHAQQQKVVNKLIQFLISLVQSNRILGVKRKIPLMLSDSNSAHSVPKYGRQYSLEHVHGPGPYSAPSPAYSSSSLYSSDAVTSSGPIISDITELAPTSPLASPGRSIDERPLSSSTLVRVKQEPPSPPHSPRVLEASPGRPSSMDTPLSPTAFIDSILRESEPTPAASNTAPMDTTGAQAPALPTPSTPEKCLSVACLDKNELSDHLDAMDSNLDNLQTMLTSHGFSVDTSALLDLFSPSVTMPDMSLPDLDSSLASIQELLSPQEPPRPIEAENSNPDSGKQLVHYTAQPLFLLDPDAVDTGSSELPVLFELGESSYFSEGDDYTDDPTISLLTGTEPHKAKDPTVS

Sequence of FAD-linked sulfhydryl oxidase ALR (P55789 whole entry): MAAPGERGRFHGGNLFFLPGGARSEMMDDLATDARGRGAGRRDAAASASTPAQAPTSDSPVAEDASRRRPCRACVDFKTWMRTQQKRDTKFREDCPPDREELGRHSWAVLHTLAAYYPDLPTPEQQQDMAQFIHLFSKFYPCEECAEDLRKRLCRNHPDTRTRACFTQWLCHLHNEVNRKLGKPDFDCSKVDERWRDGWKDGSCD
Sequence of Cytochrome P450 3A4 (P08684 whole entry): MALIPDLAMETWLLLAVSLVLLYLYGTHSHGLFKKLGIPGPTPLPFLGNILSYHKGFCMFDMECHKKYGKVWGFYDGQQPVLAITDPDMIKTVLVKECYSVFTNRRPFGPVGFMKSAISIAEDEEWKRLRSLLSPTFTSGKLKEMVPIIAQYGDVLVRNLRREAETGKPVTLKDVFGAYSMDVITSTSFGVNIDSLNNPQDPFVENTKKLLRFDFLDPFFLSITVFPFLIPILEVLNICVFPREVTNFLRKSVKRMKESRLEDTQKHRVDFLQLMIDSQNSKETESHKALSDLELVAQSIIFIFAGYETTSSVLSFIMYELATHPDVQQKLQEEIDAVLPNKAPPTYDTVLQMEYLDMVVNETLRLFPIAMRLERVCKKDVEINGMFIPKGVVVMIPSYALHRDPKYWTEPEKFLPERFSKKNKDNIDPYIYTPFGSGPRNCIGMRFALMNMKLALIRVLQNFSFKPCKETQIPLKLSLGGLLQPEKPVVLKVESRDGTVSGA

## N#C/C(=C(/O)c1cc2ccccc2o1)c1nc2ccccc2s1
[1]
  EC50: > 300 µM (not active)
[2]
  EC50: 9.28 µM (active)
Streptococcus
  EC50: 42.4 µM (active)
[3]
  EC50: > 300 µM (not active)

## Cc1ccc(S(=O)(=O)Nc2c(C(=O)O)[nH]c3ccccc23)cc1C
[4]
  AC50: 10.8 µM (active)

## COC(=O)C1=C(C)N(CC2CC2)C(NCc2cccc(Cl)c2)=N[C@H]1c1ccccc1
[5]
  CC50: 22.5 µM (active)

## CC(=O)OC1C2C(OC(=O)Cc3ccccc3)C(C)CC2(OC(C)=O)C(=O)/C(C)=C/C2C(CC[C@@]13CO3)C2(C)C (some centres not stated)
Cytochrome P450 3A4
  AC50: 3.98 µM (inconclusive)

## C=CC[n+]1c(C)csc1Nc1cccc(Br)c1
[4]
  AC50: 7.54 µM (active)

## C[C@@H]1CC2(OC3C[C@@]4(C)C5=CC[C@H]6C(C)(C)C(O[C@@H]7OC[C@@H](O)[C@H](O)[C@H]7O)CC[C@@]67C[C@@]57CC[C@]4(C)C31)OC(O)C1(C)OC21 (some centres not stated)
Cytochrome P450 3A4
  AC50: 5.01 µM (inconclusive)

## CCN(CC)CCn1c(-c2ccccc2)nc2c(NC3CCCCC3)nc(C)nc21
Cytochrome P450 3A4
  AC50: 15.8 µM (inconclusive)

## CCCCNc1nc(C)nc2c1nc(-c1ccccc1)n2CCCN(CC)CC
Cytochrome P450 3A4
  AC50: 25.1 µM (inconclusive)

## CCN1/C(=C/C(C)=O)Sc2ccc(OC)cc21
Cytochrome P450 3A4
  AC50: 25.1 µM (inconclusive)

## C=CCn1c(COc2ccccc2)nnc1SCC(=O)N/N=C/c1cc(Cl)ccc1O
Streptokinase A
  EC50: > 150 µM (not active)
[2]
  EC50: 4.37 µM (active)
Streptococcus
  EC50: 48.1 µM (active)

## COC1=CC(=O)C(O)=C/C1=C\C=C\c1ccccc1 [OBTUSAQUINONE]
Cytochrome P450 3A4
  AC50: 25.1 µM (inconclusive)

## CCCCC(=O)NC(=S)NNC(=O)c1ccc(OC)cc1
[6]
  IC50: > 20 µM (inactive)
[7]
  EC50: 5.06 µM (active)

## CC1(C)Cc2c(c(N3CCOCC3)nc3sc4c(=O)nc[nH]c4c23)CS1
[6]
  IC50: > 20 µM (inactive)

## CCC(C)[C@@H](N)C(=O)N/N=C/c1cccc2nccnc12 (some centres not stated)
[1]
  EC50: > 300 µM (not active)
[3]
  EC50: > 300 µM (not active)

## COC(=O)c1cccc(NC(=O)Cc2coc3cc(OC)ccc23)c1
[6]
  IC50: > 20 µM (inactive)

## O=C(CSc1nnc(CNC(=O)c2ccccc2)o1)NCCc1ccccc1
Streptokinase A
  EC50: > 150 µM (not active)
[2]
  EC50: > 150 µM (not active)
Streptococcus
  EC50: > 150 µM (not active)

## CC(NC(=O)c1ccccc1)C(=O)N/N=C/c1ccc(O)cc1 (configuration not stated)
[4]
  AC50: 2.14 µM (active)

## Cc1ccc(S(=O)(=O)NNC(=O)c2ccc3ccccc3n2)cc1
[4]
  AC50: 7 µM (active)

## O=P(N[C@@H](c1ccccc1)[C@@H]1C[C@H]1CO)(c1ccccc1)c1ccccc1
Cytochrome P450 3A4
  AC50: 15.8 µM (inconclusive)

## N#CC1=C(N)OC2=C(C(=O)CCC2)C1c1ccc2c(c1)OCO2 (configuration not stated)
[1]
  EC50: > 300 µM (not active)
[3]
  EC50: > 300 µM (not active)

## CC1(OC(=O)c2ccc(Cl)nc2)C(=O)C=C2C=C(c3ccsc3)OC=C2C1=O (configuration not stated)
[1]
  EC50: 54.4 µM (active)
[3]
  EC50: 41.9 µM (active)

## Cn1nc(N)c2c(-c3ccc(Cl)cc3)c(C#N)c(N)nc21
[6]
  IC50: > 20 µM (inactive)

## COC(=O)CNC(=O)C1(C)C=CC2(CCCCC2)N1C(C)=O (configuration not stated)
Cytochrome P450 3A4
  AC50: 25.1 µM (inconclusive)

## Nc1nc(NC(=O)/C=C/c2ccc(F)cc2)nn1-c1ccccc1
Streptokinase A
  EC50: > 150 µM (not active)
[2]
  EC50: 3.91 µM (active)
Streptococcus
  EC50: > 150 µM (not active)

## Cc1ccc(Cn2c(N/N=C/c3ccncc3)nc3c2c(=O)n(C)c(=O)n3C)cc1
[4]
  AC50: 1.77 µM (active)

## Nc1cc(Cl)c([N+](=O)[O-])cc1O
Cytochrome P450 3A4
  AC50: 31.6 µM (inconclusive)

## O=C(C1=C(O)C(=O)N(c2ncccn2)C1c1cccs1)c1ccco1 (configuration not stated)
[1]
  EC50: 39.9 µM (active)
[3]
  EC50: 31.5 µM (active)

## O=c1cc(CO)oc(C(Nc2cccc([N+](=O)[O-])c2)c2ccccn2)c1O (configuration not stated)
[6]
  IC50: > 20 µM (inactive)

## Cc1c(C(=O)c2ccc(N(C)C)cc2)c2ccccn2c1CCC#N
[8]
  IC50: > 50 µM (not active)
[4]
  AC50: 2.73 µM (active)

## Cc1cccc(Cn2nc(-n3cccc3)c3c(C)cc(C)nc32)c1
Streptokinase A
  EC50: 15.1 µM (active)
[2]
  EC50: 12 µM (active)
Streptococcus
  EC50: > 150 µM (not active)

## CC(=O)Nc1ccc2c(c1)C(=O)N(c1cccc(C)c1)C2=O
[6]
  IC50: > 20 µM (inactive)

## COc1cc(-c2coc3cc(OCc4ccccc4)c(OC)c(O)c3c2=O)cc(O)c1OC [IRIGENIN, 7-BENZYL ETHER]
Cytochrome P450 3A4
  AC50: 15.8 µM (inconclusive)

## CNC(SCc1cc2c(cc1Cl)OCO2)=C1C(=O)N(C)C(=O)N(C)C1=O
[9]
  EC50: > 195 µM (not active)
[4]
  AC50: 1.56 µM (active)

## CCC(=O)NC(=S)NNC(=O)c1ccc(OC)cc1
[6]
  IC50: > 20 µM (inactive)
